The test deals with BDF1 mice, P388 leukemia ip, median survival T/C. The experiment in a line: NCI In Vivo Anticancer Drug Screen. Data for tumor model P388 Leukemia (intraperitoneal) in B6D2F1 (BDF1) mice. Particulars: endpoint: median survival time, higher = longer survival. Here is the method:
The antitumor activity of compounds was measured in mice bearing transplantable tumors. Survival or tumor size were measured and the results are expressed as the measurement made in the treated group (T) divided by the measurement made in the vehicle treated control group (C). The tumor model used in this assay is P388 Leukemia (intraperitoneal) in B6D2F1 (BDF1) mice

[1] abbreviates: dose: 12.5 mg/kg/injection, schedule: Q01DX009 (ip), vehicle: saline with Tween-80.
[2] abbreviates: dose: 25.0 mg/kg/injection, schedule: Q01DX009 (ip), vehicle: saline with Tween-80.
Where [3] appears, read: dose: 100.0 mg/kg/injection, schedule: Q01DX009 (ip), vehicle: saline.
The mark [4] stands for this setting: dose: 200.0 mg/kg/injection, schedule: Q01DX009 (ip), vehicle: saline.
[5] abbreviates: dose: 100.0 mg/kg/injection, schedule: Q04DX003 (ip), vehicle: saline with Tween-80.
Setting [6] is: dose: 200.0 mg/kg/injection, schedule: Q04DX003 (ip), vehicle: saline with Tween-80.
Where [7] appears, read: dose: 100.0 mg/kg/injection, schedule: Q01DX001 (ip), vehicle: saline with Tween-80.
Setting [8] is: dose: 200.0 mg/kg/injection, schedule: Q01DX009 (ip), vehicle: saline with Tween-80.
The mark [9] stands for this setting: dose: 100.0 mg/kg/injection, schedule: Q04DX003 (ip), vehicle: Klucel (hydroxypropylcellulose) (HPC).
[10] abbreviates: dose: 200.0 mg/kg/injection, schedule: Q04DX003 (ip), vehicle: Klucel (hydroxypropylcellulose) (HPC).
[11] abbreviates: dose: 400.0 mg/kg/injection, schedule: Q04DX003 (ip), vehicle: Klucel (hydroxypropylcellulose) (HPC).
Setting [12] is: dose: 50.0 mg/kg/injection, schedule: Q01DX009 (ip), vehicle: Klucel (hydroxypropylcellulose) (HPC).
Where [13] appears, read: dose: 100.0 mg/kg/injection, schedule: Q01DX009 (ip), vehicle: Klucel (hydroxypropylcellulose) (HPC).
The mark [14] stands for this setting: dose: 200.0 mg/kg/injection, schedule: Q01DX009 (ip), vehicle: Klucel (hydroxypropylcellulose) (HPC).

These results are taken from PubChem BioAssay AID328 (DTP/NCI, 2004).

Each structure is given as a SMILES string. Values joined by “and” are separate entries in the source; they are usually repeats but may differ in a detail not shown here. Identical values can stand only once. Inconclusive results and toxic doses are left out.

For the molecule `CC(=O)CC(OC(=O)c1cc([N+](=O)[O-])cc([N+](=O)[O-])c1)(C(F)(F)F)C(F)(F)F`, the T/C (dose: 6.25 mg/kg/injection, schedule: Q01DX009 (ip), vehicle: saline with Tween-80) is 100 % of control; the T/C under setting [1] was 118 % of control; the T/C under setting [2] was 118 % of control.

Consider `Cc1cc(C)c2cc3cccc[n+]3cc2c1`, for which, for the setting “dose: 4.0 mg/kg/injection, schedule: Q01DX010 (ip), vehicle: carboxymethylcellulose (CMC)”, the T/C was 115 % of control.

Consider `NC(Cc1cc(Cl)c(O)c(Cl)c1)C(=O)O` (stereo not given), for which the T/C was 94 % of control under setting [3]; 97 % of control (dose: 150.0 mg/kg/injection, schedule: Q01DX009 (ip), vehicle: saline); 105 % of control under setting [4].

For the molecule `COc1cccc(CNc2cccc(Cl)c2Cl)c1OC`, the T/C is, setting by setting: under setting [5], 100 % of control; under setting [6], 104 % of control; (dose: 400.0 mg/kg/injection, schedule: Q04DX003 (ip), vehicle: saline with Tween-80) 100 % of control.

For the molecule `N#CC(/C=C/c1ccccc1)Nc1ccccc1C(N)=O` (stereo not given), the T/C is 109 % of control (dose: 25.0 mg/kg/injection, schedule: Q01DX001 (ip), vehicle: saline with Tween-80); 104 % of control (dose: 50.0 mg/kg/injection, schedule: Q01DX001 (ip), vehicle: saline with Tween-80); 100 % of control under setting [7].

For the molecule `CS/C(N)=N/N`, the T/C (dose: 6.25 mg/kg/injection, schedule: Q04DX003 (ip), vehicle: saline) is 95 % of control and the T/C (dose: 12.5 mg/kg/injection, schedule: Q04DX003 (ip), vehicle: saline) was 108 % of control.

Turning to `Cc1cccc(N2CCNCC2)c1`, the T/C runs as follows: (dose: 6.25 mg/kg/injection, schedule: Q04DX003 (ip), vehicle: saline sonified) 95 % of control; (dose: 12.5 mg/kg/injection, schedule: Q04DX003 (ip), vehicle: saline sonified) 100 % of control; (dose: 25.0 mg/kg/injection, schedule: Q04DX003 (ip), vehicle: saline sonified) 109 % of control.

For the molecule `COC1(OC)OC(c2ccccc2)=C(C#N)C(/C=C\c2ccccc2)C1(OC)OC` (stereo not given), the T/C reads like this: under setting [1], 100 % of control; under setting [2], 91 % of control; (dose: 50.0 mg/kg/injection, schedule: Q01DX009 (ip), vehicle: saline with Tween-80) 90 % of control and 91 % of control; under setting [8], 106 % of control.

With `COc1cc(O)c2c(c1)C(=O)c1cc(C)cc(O)c1C2=O`, the T/C is 100 % of control (dose: 2.5 mg/kg/injection, schedule: Q01DX009 (ip), vehicle: saline with Tween-80); 100 % of control (dose: 5.0 mg/kg/injection, schedule: Q01DX009 (ip), vehicle: saline with Tween-80); 95 % of control (dose: 10.0 mg/kg/injection, schedule: Q01DX009 (ip), vehicle: saline with Tween-80); 100 % of control (dose: 20.0 mg/kg/injection, schedule: Q01DX009 (ip), vehicle: saline with Tween-80).

In the case of `O=c1oc2cc(O)ccc2c2c1CCCC2`, the T/C is 95 % of control under setting [9], 95 % of control under setting [10] and 100 % of control under setting [11].

Take `CCC(CC)OC(=O)c1cccc(C)c1`: the T/C reads like this: (dose: 50.0 mg/kg/injection, schedule: Q04DX003 (ip), vehicle: saline with Tween-80) 104 % of control; under setting [5], 108 % of control; under setting [6], 101 % of control.

For the molecule `CCOC(=O)C(NC(C)=O)(C(=O)OCC)C(C)C(O)c1ccc(OC)c(OC)c1O` (stereo not given), the T/C reads like this: (dose: 25.0 mg/kg/injection, schedule: Q01DX009 (ip), vehicle: saline) 100 % of control; (dose: 50.0 mg/kg/injection, schedule: Q01DX009 (ip), vehicle: saline) 100 % of control; under setting [3], 109 % of control; under setting [4], 122 % of control; (dose: 400.0 mg/kg/injection, schedule: Q01DX009 (ip), vehicle: saline) 100 % of control.

`CC(=O)O[C@@H]1c2c(c3c(=O)c4cccc(O)c4c(=O)c=3c2=[N+]=[N-])[C@H](OC(C)=O)[C@@H](OC(C)=O)[C@]1(C)O`: the T/C runs as follows: (dose: 3.0 mg/kg/injection, schedule: Q01DX009 (ip), vehicle: Klucel (hydroxypropylcellulose) (HPC)) 118 % of control; (dose: 6.0 mg/kg/injection, schedule: Q01DX009 (ip), vehicle: Klucel (hydroxypropylcellulose) (HPC)) 105 % of control.

Turning to `O=C1c2ccccc2S(=O)(=O)c2cc(-c3nn[nH]n3)ccc21`, the T/C reads like this: under setting [12], 106 % of control; under setting [13], 94 % of control; under setting [14], 104 % of control.

As to `O=C(Nc1ccc(F)cc1)Nc1cccc2ccccc12`, the T/C was 90 % of control under setting [7]; 90 % of control (dose: 200.0 mg/kg/injection, schedule: Q01DX001 (ip), vehicle: saline with Tween-80); 90 % of control (dose: 400.0 mg/kg/injection, schedule: Q01DX001 (ip), vehicle: saline with Tween-80).

On to `CC(C)(C)c1ccc(OCc2cnc[nH]2)cc1`, for which the T/C (dose: 100.0 mg/kg/injection, schedule: Q01DX001 (ip), vehicle: saline) is 113 % of control.

On to `O=[N+]([O-])c1ccc2c(c1)C(Br)c1ccccc1-2` (stereo not given), for which the T/C runs as follows: under setting [12], 90 % of control; under setting [13], 118 % of control; under setting [14], 118 % of control.

For the molecule `O=C(Nc1cccc(S(=O)(=O)F)c1)c1ccc(COc2ccc([N+](=O)[O-])cc2Cl)cc1`, the T/C was 91 % of control (dose: 100.0 mg/kg/injection, schedule: Q01DX009 (ip), vehicle: saline with Tween-80) and 91 % of control under setting [8].

As to `CC12C(C#N)=C(c3ccccc3)C=C(c3ccccc3)C1=C(c1ccccc1)c1ccccc12` (stereo not given), the T/C under setting [9] is 108 % of control, the T/C under setting [10] was 95 % of control and the T/C under setting [11] was 91 % of control.

On to `CCOC(=O)/C(=C/C(C#N)=C/N(C)C)CC`, for which the T/C (dose: 100.0 mg/kg/injection, schedule: Q01DX001 (ip), vehicle: other) is 100 % of control; the T/C (dose: 200.0 mg/kg/injection, schedule: Q01DX001 (ip), vehicle: other) was 109 % of control; the T/C (dose: 400.0 mg/kg/injection, schedule: Q01DX001 (ip), vehicle: other) is 109 % of control.

On to `CCCCOP(=O)(N1CC1CC)N1CC1CC` (stereo not given), for which the T/C was 123 % of control (dose: 50.0 mg/kg/injection, schedule: Q04DX003 (ip), vehicle: saline); 122 % of control (dose: 60.0 mg/kg/injection, schedule: Q04DX003 (ip), vehicle: saline); 122 % of control (dose: 85.0 mg/kg/injection, schedule: Q04DX003 (ip), vehicle: saline); 150 % of control (dose: 100.0 mg/kg/injection, schedule: Q04DX003 (ip), vehicle: saline); 109 % of control (dose: 133.0 mg/kg/injection, schedule: Q04DX003 (ip), vehicle: saline with Tween-80); 100 % of control (dose: 133.0 mg/kg/injection, schedule: Q04DX003 (ip), vehicle: saline). Besides, the T/C by setting is: under setting [6], 109 % of control; (dose: 300.0 mg/kg/injection, schedule: Q04DX003 (ip), vehicle: saline) 176 % of control.

As to `CC(C#N)N(C)C` (stereo not given), the T/C was 110 % of control (dose: 10.0 mg/kg/injection, schedule: Q01DX009 (ip), vehicle: saline); 95 % of control (dose: 10.0 mg/kg/injection, schedule: Q04DX003 (ip), vehicle: saline); 91 % of control (dose: 20.0 mg/kg/injection, schedule: Q04DX003 (ip), vehicle: saline); 95 % of control (dose: 40.0 mg/kg/injection, schedule: Q04DX003 (ip), vehicle: saline).

`C[C@]12CC[C@@H]3c4ccc(O)cc4CC[C@H]3[C@@H]1C[C@H](O)C2`: the T/C runs as follows: under setting [13], 100 % of control; under setting [9], 100 % of control; under setting [14], 95 % of control; under setting [10], 100 % of control; (dose: 400.0 mg/kg/injection, schedule: Q01DX009 (ip), vehicle: Klucel (hydroxypropylcellulose) (HPC)) 112 % of control; under setting [11], 91 % of control.
